Assays:
[1] = test system: Teredo navalis; assay: Marine field test according to EN 275: rating of attack on tralopyril impregnated Scots pine sapwood by T. navalis; assay type: in vivo; design: key: 0: No destruction No visible tunnel or destruction by marine organisms; Little destruction Tunnels are one or a few number and up to cover 15% of total sample area; Moderate destruction Tunnels cover between 15-25% of total sample area; 3: Violent destruction Tunnels cover between 25-50% of total sample area; 4: Fully destruction Tunnels covered more than 50% of total sample area; —: some samples were destroyed the second year (indicated by ‘-’ in Table 1); settings: single wood samples; tralopyril retention 1087 g/m^3 (solvent based formulation, methanol); 1 year in seawater
Method: (§1) The effectiveness to reduce the presence of marine woodborers in wood situated in a marine environment was determined using the guidelines and recommendations in EN 275: 1992—wood preservatives—determination of the protective effectiveness against marine woodborers.
(§2) Wood Material The wood material used for both control groups (untreated) and test groups was Scots pine sapwood (Pinus sylvestris L.). The size of the wood samples was 25×70×200 mm and all pine specimens were pure sapwood and free from defects.
Full cell Impregnation Procedure: • place specimens into a treatments vessel (e.g. an exsiccator) • pull vacuum until 7 hPa is reached and hold said vacuum for 15 minutes • flood specimens under vacuum with treatment solution until the specimens are completely immersed • release vacuum and make sure that samples stay completely immersed while ambient pressure presses treatment solution into the specimens • leave specimens for further 2 hours immersed in the treatment solution • subsequently remove the specimens from the treatment solution, drain drip off solution for some minutes and place the specimens container on inert supports. • keep specimens in the closed container for 3 days (over weekend) for fixation, subsequently open the lid every day a bit more and remove it completely after 4 days • dry specimens in the open container at room temperature further 3 days […]

[2] = test system: Limnoria lignorum; assay: Marine field test according to EN 275: rating of attack on tralopyril impregnated Scots pine sapwood by Limnoria l.; assay type: in vivo; design: key to Rating of attack by Limnoria l. 1st year / Rating of attack by Limnoria l. 2nd year: 0: No destruction No visible tunnel or destruction by marine organisms; Little destruction Tunnels are one or a few number and up to cover 15% of total sample area; Moderate destruction Tunnels cover between 15-25% of total sample area; 3: Violent destruction Tunnels cover between 25-50% of total sample area; 4: Fully destruction Tunnels covered more than 50% of total sample area; —: some samples were destroyed the second year (indicated by ‘-’ in Table 1); settings: for Rating of attack by Limnoria l. 1st year, average / Rating of attack by Limnoria l. 2nd year, average: average of samples, scale 0-4; for Rating of attack by Limnoria l. 1st year, average / Rating of attack by Limnoria l. 1st year: 1 year in seawater; for Rating of attack by Limnoria l. 2nd year, average / Rating of attack by Limnoria l. 2nd year: 2 years in seawater; for Rating of attack by Limnoria l. 1st year / Rating of attack by Limnoria l. 2nd year: single wood samples
Method: as §1, §2
Full cell Impregnation Procedure: • place specimens into a treatments vessel (e.g. an exsiccator) • pull vacuum until 7 hPa is reached and hold said vacuum for 15 minutes • flood specimens under vacuum with treatment solution until the specimens are completely immersed • release vacuum and make sure that samples stay completely immersed while ambient pressure presses treatment solution into the specimens • leave specimens for further 2 hours immersed in the treatment solution • subsequently remove the specimens from the treatment solution, drain drip off solution for some minutes and place the specimens container on inert supports. • keep specimens in the closed container for 3 days (over weekend) for fixation, subsequently open the lid every day a bit more and remove it completely after 4 days • dry specimens in the open container at room temperature further 3 days
1a) Water Dilutable Formulation (Emulsifiable Concentrate)
Tralopyril dissolved in methanol (1600 ppm and 400 ppm).
1a) water dilutable formulation : 228 g and 846 g a.i./ m^3
1b) solvent based formulation : 1087 g a.i./ m^3
Bay (Gullmar fjord) outside the Kristineberg Marine Research Station, 100 km north of Gothenburg, Sweden.
Temperature and salinity of water: Temperature varies between (18-22)° C. in the summer and −1.5° C. in mid-winter. Salinity varies between 26 g/kg and 34 g/kg. Good oxygen level due to a strong water flow.
Borer activity: there is borer activity all around the year. […] The criterion for failure due to Teredo attack (tunnels covering more than 50% of the specimen area as it appears on the X-ray film) is often fulfilled already within 6 months for untreated control specimens. Maximum “service” life of untreated controls is approximately 1.5 years, after which the samples are often broken to pieces by the autumn storms.
Specimens were hung on nylon-bars (diameter =24 mm) of two ladder-like rigs placed on the sea bottom at 6±0.4 m depth at low tide. The test rigs have heavy concrete foundations and each rig was kept upright by a 50 cm diameter buoy. As a result of the arrangement, the specimens are located at depths varying from 4 m to 6.5 m below water surface during the exposure period.
Gribbles: Limnoria lignorum (present but not very active)

[3] = tralopyril retention 1087 g/m^3
[4] = tralopyril retention 228 g/m^3 (water dilutable formulation)
[5] = tralopyril retention 846 g/m^3 (water dilutable formulation)
[6] = tralopyril retention 1087 g/m^3 (solvent based formulation, methanol)

N#Cc1c(-c2ccc(Cl)cc2)[nH]c(C(F)(F)F)c1Br [tralopyril, 4-bromo-2-(4-chlorophenyl)-5-(trifluoromethyl)-1H-pyrrole-3-carbonitrile]
0: Rating of attack by T. navalis 1st year [1] | Rating of attack by Limnoria l. 1st year [2, 4] | Rating of attack by Limnoria l. 2nd year [2, 4] | Rating of attack by Limnoria l. 1st year [2, 5] | Rating of attack by Limnoria l. 2nd year [2, 5] | Rating of attack by Limnoria l. 1st year [2, 6] | Rating of attack by Limnoria l. 2nd year [2, 6]
0.0: Rating of attack by Limnoria l. 1st year, average ([2]; tralopyril retention 228 g/m^3) | Rating of attack by Limnoria l. 2nd year, average ([2]; tralopyril retention 228 g/m^3) | Rating of attack by Limnoria l. 1st year, average ([2]; tralopyril retention 846 g/m^3) | Rating of attack by Limnoria l. 2nd year, average ([2]; tralopyril retention 846 g/m^3) | Rating of attack by Limnoria l. 1st year, average [2, 3] | Rating of attack by Limnoria l. 2nd year, average [2, 3]

Reference: US20150086719A1, “USE OF […] MARINE WOODBORERS” (Janssen Pharmaceutica, NV, priority 2012, published 2015)
